Tested on: ornithine decarboxylase (ODC)
Test: Inhibition of TPA induction of ornithine decarboxylase (ODC assay)
Type: biochemical
From the text: A classic measure of retinoic acid activity involves measuring the effects of retinoic acid on ornithine decarboxylase. The original work on the correlation between retinoic acid and decrease in cell proliferation was done by Verma & Boutwell, Cancer Research, 1977, 37,2196-2201. That reference discloses that ornithine decarboxylase (ODC) activity increased precedent to polyamine biosynthesis. It has been established elsewhere that increases in polyamine synthesis can be correlated or associated with cellular proliferation. Thus, if ODC activity could be inhibited, cell hyperproliferation could be modulated. Although all cases for ODC activity increases are unknown, it is known that 12-O-tetradecanoylphorbol-13-acetate (TPA) induces ODC activity. Retinoic acid inhibits this induction of ODC activity by TPA. […] Activity of exemplary compounds of the present invention in the above-described ODC assay is disclosed in Table 1 which provides the IC60 concentration for the respective exemplary compound. ("IC60 " is that concentration of the test compound which causes 60% inhibition in the ODC assay. By analogy, "IC80, for example, is that concentration of the test compound which causes 80% inhibition in the ODC assay.)

IC80 (concentration causing 80% inhibition in the ODC assay (TPA-induced), marked (IC80) in the IC60 column) [nmols] | IC60 (concentration causing 60% inhibition in the ODC assay (TPA-induced)) [nmols] | SMILES
4.3 | – | CC1(C)CC=C(c2cccs2)c2ccc(C(=O)C=Cc3ccc(C(=O)O)cc3)cc21 [Compound D34, 4-[3-oxo-3-(7,8-dihydro-5-(2-thienyl)-8,8-dimethyl-2-naphthalenyl)-1-propenyl]-benzoic acid]
– | 8.4 | CCOC(=O)c1ccc(N=Nc2ccc3c(c2)/C(=N/OC)CCC3(C)C)cc1 [Compound D3, Ethyl 4-[(8(7H)-anti-(O-methyl oxime)-5,5-dimethyl-5,6-dihydronaphthalen-2-yl)azo]benzoate]

— US5763635A, “Tetrahydronaphthalene derivatives substituted in the 8 position with alkyhidene groups having retinoid and/or retinoid antagonist-like biological activity” (ALLERGAN, priority 1996, dated 1998)
